Publication PMC4076215, “Nickel(II) Complex of Polyhydroxybenzaldehyde N4-Thiosemicarbazone Exhibits Anti-Inflammatory Activity by Inhibiting NF-κB Transactivation” (PLoS ONE, 2014)
Entries after “also recorded” stand apart in the source; their conditions may differ.

Legend:
[1] = Liver functional test (serum) after oral dosing; format: in vivo, C57BL/6 mice; conditions: after two weeks
Experimental: Liver functional test. C57BL/6 mice at age 8-12 weeks old were administrated orally with control PBS or with various concentrations (125 mg/kg, 250 mg/kg and 500 mg/kg) of complex 5. n= 6 (3 male and 3 female mice)/group. After two weeks, sera were collected from the mice for liver functional test.
Shown were mean ± SD. TBIL: Total Bilirubin, BC: Conjugated
Bilirubin, ALP: Alkaline Phophatase, ALT: Alanine Aminotransferase, AST: Aspartate Transaminase, GGT: G-Glutamyl Transferase.

[2] = tested on: NF-κB transactivation activity; assay: NF-κB luciferase reporter assay in 293T-luc cells; format: cell-based; conditions: 293T-luc, 12.5, 25, 50 µg/ml 4 h, TNFα 12 h
Experimental: 293T cells were transduced with a lentivirus carrying luciferase reporter driven by NF-κB enhancer found in immunoglobulin kappa light chain gene to prepare 293T-luc cells. The 293T-luc cells were pretreated with or without of complex 5 (12.5 µg/ml, 25 µg/ml, 50 µg/ml) for 4 h. The cells were later stimulated with TNFα (10 ng/ml) for 12 h. Cells were scraped, collected into 1.5 ml tubes and centrifuged at 1.5 k rpm 4°C for 5 min before removing the culture medium. Cell pellets were resuspended in 50 µl luciferase lysis buffer (100 mM Sodium Phosphate buffer, pH7.8; 8 mM MgCl2; 1% Triton X-100; 15% glycerol; 1 mM DTT). A total volume of 50 µl of luciferase substrate (containing 1 mM ATP; 0.25 mM luciferin; 1% BSA) was added to each well on a white 96-well plate containing 20 µg lysate. Luciferase activity was measured in 96-well plate with a VarioskanFlash microplate reader (Thermo Scientific).
Figure 6 Complex 5 inhibits NF-κB transactivation activity. (A) RAW264.7 cells pretreated with or without complex 5 for 4 h were treated with LPS for 4 h. The expression of TNFα, IFNβ, IL6 and IP10 were measured by QPCR. […] The expression of TNFα, IL8, CCL5, ICAM1, IL6 and A20 were measured by QPCR. […] The expression of IL8 and TNF were measured by QPCR. […] Cell lysates were prepared and the luciferase activities were measured. […]

HeLa S3 cells = assay: Cell proliferation (MTT) assay, HeLa S3
Experimental: A total number of 1.0×10^4 cells per well were seeded into a 96-well plate and incubated overnight at 37°C in 5% CO2. The next day, the cells were treated with a two-fold serial dilution of compounds. MTT assays were performed as described [27]. After 48 h, (4,5-dimethylthiazol-2-yl-2,5-diphenyltetrazoliumbromide) was added at 2 mg/ml. After 3 h of incubation at 37°C in 5% CO2, DMSO was added to dissolve the formazan crystals. The plates were then read in Chameleon multitechnology microplate reader (Hidex, Turku, Finland) at 570 nm absorbance. The ratio of the absorbance of treated cells to the absorbance of DMSO-treated control cells was determined as percentage cell viability.
To examine whether synthesized Ni(II) thiosemicarbazone ligands or Ni(II)-phosphine complexes were cytotoxic, we treated RAW264.7 (leukemic monocyte macrophage) and HeLa S3 (cervical adenocarcinoma) cells with these compounds for 48 h. The cell viability was determined with MTT assays [33].

[3] = tested on: NF-κB p65 nuclear translocation; assay: NF-κB p65 immunofluorescence staining, LPS-stimulated RAW264.7; format: cell-based; conditions: RAW264.7, 25 µg/ml pre-treatment 4 h, LPS 1 h
Experimental: NF-κB Activation Kits (Thermo Scientific) were used as previously described. Cells were pretreated with compounds for 4 h before being stimulated with lipopolysaccharide (LPS) ortumour necrosis factor α (TNFα) for 1 h. Cells were then fixed and permeabilized before probing with NF-κB p65 antibody for 1 h. Staining solution (containing DyLight 488 Goat Anti-Rabbit and Hoechst dye) was then added and incubated for 1 h. The plate with stained cells was evaluated using a Cellomics ArrayScan HCS Reader (Cellomics, PA, USA). Data were captured, extracted and analyzed with ArrayScan II Data Acquisition and Data Viewer version 3.0 (Cellomics).
NF-κB acts as a central mediator of inflammatory responses and compounds that inhibit NF-κB activation are potential anti-inflammatory agents. To evaluate this, we performed immunofluorescence staining of NF-κB p65. […] In response to LPS stimulation, NF-κB p65 translocated from cytoplasm into the nucleus, implying NF-κB activation (Figure 3). […] Moreover, we observed that complex 6–8 required higher concentration (>50 µg/ml) to elicit similar inhibitory effect (data not shown).
Figure 3 Effect of N4-substituteted thiosemicarbazone complexes on LPS-induced NF-κB nuclear transloction in RAW264.7 macrophage cells. Staining of Hoechst (nucleus) and NF-κB in RAW264.7 cells. […]

COX-2 expression = assay: TNF-induced COX-2 expression; format: cell-based; conditions: Figure S1
Experimental: In addition, we investigated the effect of complex 5 on NF-κB-mediated gene expression in response to TNFα stimulation in human HeLa S3 cells. We treated HeLa S3 cells with complex 5 for 4 h before TNFα treatment for 4 h.
Supplementary file pone.0100933.s001.pdf: Figure S1 Complex 5 inhibits TNF-induced COX2 expression. (PDF) Click here for additional data file.

[4] = Acute toxicity test in mice; format: in vivo, C57BL/6 mice
Source text: Next, we examined the anti-inflammatory effects of complex 5 in a carrageenan-induced paw edema mouse model. We first tested the acute toxicity effect of complex 5 in C57BL/6 mice.

## NC1=[S+][Ni-2]2([P+](c3ccccc3)(c3ccccc3)c3ccccc3)[O]c3c(O)cccc3C=[N+]2N1.[Cl-] [complex 5, {2-[(2-Carbamothiolylhydrazin-1-ylidene-[kappa]2N1,S)methyl]-6-hydroxyphenolato-[kappa]O1}(triphenylphosphine-[kappa]P)nickel(II) chloride]
[1]; 125 mg/kg oral
  ALP (Alkaline Phophatase): 192.00 IU/L
  ALT (Alanine Aminotransferase): 69.00 IU/L
  AST (Aspartate Transaminase): 421.00 IU/L
  Albumin: 18.00 g/L
  BC (Conjugated Bilirubin): < 1 µmol/L
  GGT (G-Glutamyl Transferase): < 3 IU/L
  Globulin: 42.00 g/L
  TBIL (Total Bilirubin): 3.00 µmol/L
  Total Protein: 60.00 g/L
[1]; 250 mg/kg oral
  ALP (Alkaline Phophatase): 195.00 IU/L
  ALT (Alanine Aminotransferase): 70.00 IU/L
  AST (Aspartate Transaminase): 414.00 IU/L
  Albumin: 17.00 g/L
  BC (Conjugated Bilirubin): < 1 µmol/L
  GGT (G-Glutamyl Transferase): < 3 IU/L
  Globulin: 42.00 g/L
  TBIL (Total Bilirubin): 2.50 µmol/L
  Total Protein: 59.00 g/L
[1]; 500 mg/kg oral
  ALP (Alkaline Phophatase): 219.50 IU/L
  ALT (Alanine Aminotransferase): 70.00 IU/L
  AST (Aspartate Transaminase): 316.50 ± 78.49 IU/L
  Albumin: 16.00 g/L
  BC (Conjugated Bilirubin): < 1 µmol/L
  GGT (G-Glutamyl Transferase): < 3 IU/L
  Globulin: 37.50 g/L
  TBIL (Total Bilirubin): 3.00 µmol/L
  Total Protein: 53.50 g/L
[2]
  TNFα-induced NF-κB luciferase activity: significantly reduced the luciferase activity in a dose-dependent manner
HeLa S3 cells; HeLa S3, 6.25 µg/ml, 4 h treatment
  Cell viability: > 90%
HeLa S3 cells; HeLa S3 cells, 48 h treatment
  IC50 (cell viability, MTT): 29.31 ± 1.10 µg/mL
[3]
  Inhibition of LPS-mediated NF-κB p65 nuclear translocation: efficiently inhibited; also recorded: marked inhibition
COX-2 expression
  TNF-induced expression of COX-2: inhibited TNF-induced expression of COX-2 in a dose dependent manner
[4]; 125 mg/kg or 250 mg/kg oral
  Safety judged from renal and liver functional tests: safe for consumption
[4]; 500 mg/kg oral
  Safety judged from renal and liver functional tests: may be cytotoxic to the host
[4]; 14 day observation period
  Acute toxicity observation: no overt abnormalities
[4]; acute toxicity test
  Well tolerated dose: up to 250 mg/kg
